Data reported in US20110144345A1, “SULFOXYIMINO-SUBSTITUTED BENZOYL DERIVATIVE AND HERBICIDE” (NIPPON SODA CO., LTD., priority 2008, published 2011).

What was measured:
Format in all cases: in vivo
Set-up in all cases: scale not given here
[1] = system: Echinochloa crus-galli; assay: Paddy pot test, herbicidal effect on Echinochloa crus-galli; details: Screening, 63 g/ha, applied at 1.5-leaf stage, examined after 3 weeks
Procedure: (§1) Plastic pots having an area of 100 cm^2 and a depth of 10 cm were filled with paddy soil which is puddled by adding water, and seeds of Echinochloa crus-galli and Scirpus juncoides were planted in the pots. After seeding, rice plants at the 2.5-leaf stage were transplanted and the pots were filled with water. The rice plants were grown in a greenhouse. […] The herbicidal effects and harmful effects on the rice plants were examined after 3 weeks. Herbicidal effects were examined according to the examination criteria described below and were represented by the herbicidal index. [table] […] [formula]

[2] = system: Scirpus juncoides; assay: Paddy pot test, herbicidal effect on Scirpus juncoides; details: Screening, 63 g/ha, examined after 3 weeks
Procedure: as §1

[3] = system: rice plants; assay: Paddy pot test, harmful effects on transplanted rice plants; details: Screening, 63 g/ha, applied at Echinochloa crus-galli 1.5-leaf stage, examined after 3 weeks
Procedure: as §1

Compound | Echinochloa crus-galli (herbicidal index) [1] | Scripus juncoides (herbicidal index) [2] | Rice (harmful effects on the rice plants, index) [3]
COC(=O)c1ccc(C(=O)c2c(C3CC3)nn(C)c2O)cc1N=S1(=O)CCCCC1 [Example 102] | 6 | 6 | 0
COC(=O)Oc1c(C(=O)c2ccc(OC)c(N=S3(=O)CCCCC3)c2Cl)cnn1C [Example 104] | 10 | 9 | 0
COC(=O)n1cc(C(=O)c2ccc(OC)c(N=S3(=O)CCCCC3)c2Cl)c(=O)n1C [Example 105] | 10 | 8 | 0
COc1ccc(C(=O)c2cnn(C)c2OS(=O)(=O)c2ccc(C)cc2)c(Cl)c1N=S1(=O)CCCCC1 [Example 106] | 10 | 8 | 0
COc1ccc(C(=O)c2cnn(C)c2OCc2ccccc2)c(Cl)c1N=S1(=O)CCCCC1 [Example 107] | 7 | 7 | 0
C=Cc1ccc(C(=O)c2cnn(C)c2O)c(Cl)c1N=S1(=O)CCCCC1 [Example 108] | 10 | 8 | 0
Cc1ccc(C(=O)C2=C(O)CCCC2=O)c(C)c1N=S1(=O)CCCCC1 [Example 110] | 10 | 8 | 0
Cc1ccc(C(=O)c2c(C)nn(C)c2OCc2ccc3ccccc3c2)c(C)c1N=S1(=O)CCCCC1 [Example 111] | 6 | 8 | 0
COc1ccc(C(=O)c2cnn(C)c2OCc2ccc3ccccc3c2)c(F)c1N=S1(=O)CCCCC1 [Example 113] | 7 | 6 | 0
COc1ccc(C(=O)c2cnn(C)c2OCC(=O)c2ccc([N+](=O)[O-])cc2)c(Cl)c1N=S1(=O)CCCCC1 [Example 114] | 10 | 8 | 0
COc1ccc(C(=O)c2cnn(C)c2OCC(=O)c2ccccc2)c(Cl)c1N=S1(=O)CCCCC1 [Example 116] | 7 | 8 | 0
Cn1ncc(C(=O)c2ccc(CO)c(N=S3(=O)CCCCC3)c2Cl)c1O [Example 117] | 5 | 8 | 0
COc1ccc(C(=O)c2cnn(C)c2O)c(Cl)c1N=S(C)(=O)c1ccccc1 (stereo not drawn) [Example 118] | 7 | 8 | 0
COc1ccc(C(=O)c2cnn(C)c2O)c(Cl)c1N=S(C)(=O)Cc1ccccc1 (stereo not drawn) [Example 119] | 10 | 8 | 0
COc1ccc(C(=O)C2=C(O)CCCC2=O)c(Cl)c1N=S(C)(=O)Cc1ccccc1 (stereo not drawn) [Example 120] | 8 | 5 | 0
COc1ccc(C(=O)c2cnn(C)c2OCc2ccc3ccccc3c2)c(Cl)c1N=S(C)(=O)Cc1ccccc1 (stereo not drawn) [Example 121] | 7 | 7 | 0
COc1ccc(C(=O)c2cnn(C)c2OCc2ccc3ccccc3c2)c(Cl)c1N=S(C)(=O)c1ccccc1 (stereo not drawn) [Example 122] | 10 | 6 | 0
COc1ccc(C(=O)c2cnn(C)c2OCc2ccc3ccccc3c2)c(Cl)c1N=S1(=O)CCCC1 [Example 129] | 7 | 8 | 0
CCCS(=O)(=O)Oc1c(C(=O)c2ccc(OC)c(N=S3(=O)CCCCC3)c2Cl)cnn1C [Example 130] | 10 | 8 | 0
COc1c(N=S2(=O)CCCCC2)cccc1C(=O)c1cnn(C)c1OCc1ccc2ccccc2c1 [Example 132] | 6 | 8 | 0
COc1ccc(C(=O)c2cnn(C)c2OCc2ccc3ccccc3c2)c(OC)c1N=S1(=O)CCOCC1 [Example 134] | 5 | 8 | 0
COc1c(C(=O)c2cnn(C)c2OCc2ccc3ccccc3c2)ccc(C)c1N=S1(=O)CCCCC1 [Example 136] | 7 | 8 | 0
CCN(CC)CC.COc1ccc(C(=O)c2cnn(C)c2O)c(Cl)c1N=S1(=O)CCCCC1 [Example 137] | 10 | 8 | 0
COc1ccc(C(=O)c2cnn(C)c2OC(=O)c2ccccc2)c(Cl)c1N=S1(=O)CCCCC1 [Example 138] | 10 | 8 | 0
CCCS(=O)(CCC)=Nc1c(OC)ccc(C(=O)c2cnn(C)c2O)c1Cl [Example 145] | 10 | 8 | 0
CCCS(=O)(CCC)=Nc1c(OC)ccc(C(=O)c2cnn(C)c2OCc2ccc3ccccc3c2)c1Cl [Example 146] | 5 | 6 | 0
CCS(=O)(CC)=Nc1c(C(=O)OC)ccc(C(=O)C2=C(O)CCCC2=O)c1Cl [Example 148] | 6 | 8 | 0
